# In PMC9226124, “Macrocycle-stabilization of its interaction with 14-3-3 increases plasma membrane localization and activity of CFTR” (Nature Communications, 2022):
# Several values for one entry are separate records, joined by “and”; a condition that tells them apart may be missing. Equal values may be shown once.
# Assays:
# Assay type in all cases: binding
# [1] = target: T1, 14-3-3β/CFTRpS753pS768 complex (Homo sapiens, UniProt P13569+P31946); assay: Dose-response fluorescence polarization (FP) assay, compound titration; conditions: for FP signal: With 14-3-3; for Polarization, background subtracted: 14-3-3 10 μM, peptide 100 nM, replicates
# T1 construct: His6 (cleaved yes); made in house; peptide synthetic
# T1 sequence (P31946 whole entry): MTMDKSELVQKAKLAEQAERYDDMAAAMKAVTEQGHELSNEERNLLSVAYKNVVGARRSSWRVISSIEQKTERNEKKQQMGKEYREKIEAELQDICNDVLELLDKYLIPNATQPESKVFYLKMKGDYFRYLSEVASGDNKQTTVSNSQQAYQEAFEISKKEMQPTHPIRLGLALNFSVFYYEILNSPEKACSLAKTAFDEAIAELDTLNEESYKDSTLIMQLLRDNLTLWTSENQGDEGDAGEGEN
# T1 sequence (P13569 747-774 limits assumed): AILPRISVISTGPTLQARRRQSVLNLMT
# In short: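 Compounds were titrated in two-fold dilutions against 10 μM 14-3-3β and FITC-CFTR pS753pS768 peptide (100 nM or 10 nM). Buffer: 10 mM HEPES pH 7.4, 150 mM NaCl, 0.1% Tween20, 1 mg/mL BSA. Polarization was read at ex 485/em 535 nm, and EC50 was derived from a four-parameter variable-slope fit.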
# [2] = target: T2, FITC-labeled CFTRpS753pS768 peptide (no 14-3-3) (Homo sapiens, UniProt P13569); assay: Dose-response FP control assay in the absence of 14-3-3; conditions: for FP signal: No 14-3-3; for Polarization in the absence of 14-3-3, background subtracted: replicates
# T2 construct: made in house; host or cells: synthetic peptide
# In short: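 Control run without 14-3-3: FITC-CFTR pS753/pS768 peptide (100 nM or 10 nM) with compound titrated in twofold dilutions in 10 mM HEPES pH 7.4, 150 mM NaCl, 0.1% Tween20, 1 mg/mL BSA. Fluorescence polarization read at ex 485/em 535 nm, background subtracted, n = 3. Curves fitted by four-parameter log(agonist) vs. response.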
# [3] = target: T1, 14-3-3β/CFTRpS753pS768 complex; assay: FP assay, 14-3-3β titration at constant compound concentration (apparent KD); conditions: replicates; for Polarization: FC 100 uM, peptide 100 nM, listed as FC; for FP signal, 14-3-3β titration / FP signal: compound 100 μM
structure (smiles),measurement,setting,value
"C=CC(C)(C)OC[C@H]1O[C@H](O[C@@H]2C3=C([C@H](C)COC(C)=O)C[C@H](O)[C@]3(C)/C=C3/[C@@H](COC)CC[C@H]3[C@@H](C)[C@H]2O)[C@H](O)[C@@H](OC(C)=O)[C@@H]1O [FC-A, fusicoccin A, reference compound]",EC50,"[1]; 14-3-3β 10 μM, labeled CFTRpS753pS768 100 nM, read-out: EC50",69.7 µM
same,FP signal,[1]; compound 476.8 pM,1
same,FP signal,[1]; compound 953.7 pM,5
same,FP signal,[1]; compound 1.90735e-9 M,0
same,FP signal,[1]; compound 3.8147e-9 M,3
same,FP signal,[1]; compound 7.6294e-9 M,3
same,FP signal,[1]; compound 1.52588e-8 M,2
same,FP signal,[1]; compound 3.05176e-8 M,2
same,FP signal,[1]; compound 6.10352e-8 M,1
same,FP signal,[1]; compound 1.2207e-7 M,1
same,FP signal,[1]; compound 2.44141e-7 M,2
same,FP signal,[1]; compound 4.88281e-7 M,4
same,FP signal,[1]; compound 9.76563e-7 M,5
same,FP signal,[1]; compound 1.95313e-6 M,6
same,FP signal,[1]; compound 3.90625e-6 M,15
same,FP signal,[1]; compound 7.8125e-6 M,23
same,FP signal,[1]; compound 1.5625e-5 M,37
same,FP signal,[1]; compound 3.125e-5 M,53
same,FP signal,[1]; compound 6.25e-5 M,70
same,FP signal,[1]; compound 0.000125 M,91
same,FP signal,[1]; compound 0.00025 M,104
same,FP signal,[1]; compound 0.0005 M,116
same,FP signal,[1]; compound 0.001 M,133
same,"Polarization, background subtracted",[1]; compound 7.8125e-7 M,8.267 (2×) and 9.167
same,"Polarization, background subtracted",[1]; compound 1.5625e-6 M,13.6667 (2×) and 15.2667
same,"Polarization, background subtracted",[1]; compound 3.125e-6 M,22.4667 and 22.7667 and 24.2667
same,"Polarization, background subtracted",[1]; compound 6.25e-6 M,35.6667 and 36.6667 (2×)
same,"Polarization, background subtracted",[1]; compound 1.25e-5 M,51.9667 and 52.3667 and 53.1667
same,"Polarization, background subtracted",[1]; compound 2.5e-5 M,71.5667 and 71.6667 and 72.5667
same,"Polarization, background subtracted",[1]; compound 5e-5 M,88.8667 and 90.2667 and 89.8667
same,"Polarization, background subtracted",[1]; compound 0.0001 M,104.867 and 104.367 and 104.267
same,FP signal,[2]; compound 476.8 pM,1
same,FP signal,[2]; compound 953.7 pM,5
same,FP signal,[2]; compound 1.90735e-9 M,0
same,FP signal,[2]; compound 3.8147e-9 M,3
same,FP signal,[2]; compound 7.6294e-9 M,3
same,FP signal,[2]; compound 1.52588e-8 M,2
same,FP signal,[2]; compound 3.05176e-8 M,2
same,FP signal,[2]; compound 6.10352e-8 M,1
same,FP signal,[2]; compound 1.2207e-7 M,1
same,FP signal,[2]; compound 2.44141e-7 M,2
same,FP signal,[2]; compound 4.88281e-7 M,4
same,FP signal,[2]; compound 9.76563e-7 M,5
same,FP signal,[2]; compound 1.95313e-6 M,6
same,FP signal,[2]; compound 3.90625e-6 M,15
same,FP signal,[2]; compound 7.8125e-6 M,23
same,FP signal,[2]; compound 1.5625e-5 M,37
same,FP signal,[2]; compound 3.125e-5 M,53
same,FP signal,[2]; compound 6.25e-5 M,70
same,FP signal,[2]; compound 0.000125 M,91
same,FP signal,[2]; compound 0.00025 M,104
same,FP signal,[2]; compound 0.0005 M,116
same,FP signal,[2]; compound 0.001 M,133
same,"Polarization in the absence of 14-3-3, background subtracted",[2]; compound 7.8125e-7 M,1.367 and 0.6667 and -0.1333
same,"Polarization in the absence of 14-3-3, background subtracted",[2]; compound 1.5625e-6 M,0.1667 and 0.6667 and 0.3667
same,"Polarization in the absence of 14-3-3, background subtracted",[2]; compound 3.125e-6 M,0.06667 and -0.03333 and 0.6667
same,"Polarization in the absence of 14-3-3, background subtracted",[2]; compound 6.25e-6 M,0.06667 and -0.2333 and -0.3333
same,"Polarization in the absence of 14-3-3, background subtracted",[2]; compound 1.25e-5 M,0.5667 and 0.6667 (2×)
same,"Polarization in the absence of 14-3-3, background subtracted",[2]; compound 2.5e-5 M,-0.03333 and 0.6667 and 0.8667
same,"Polarization in the absence of 14-3-3, background subtracted",[2]; compound 5e-5 M,1.667 and 1.067 and 1.267
same,"Polarization in the absence of 14-3-3, background subtracted",[2]; compound 0.0001 M,1.667 and 1.167 and 2.267
same,Polarization,[3]; 14-3-3β 119.2 pM,20 and 18
same,"FP signal, 14-3-3β titration",[3]; 14-3-3β 119.2 pM,3.333 and 5.333 (2×)
same,FP signal,[3]; 14-3-3β 139.2 pM,5 (2×) and 3
same,Polarization,[3]; 14-3-3β 238.4 pM,22 and 21
same,"FP signal, 14-3-3β titration",[3]; 14-3-3β 238.4 pM,3.333 and 4.333 and 2.333
same,FP signal,[3]; 14-3-3β 278.5 pM,6 and 5 and 4
same,Polarization,[3]; 14-3-3β 476.8 pM,21 and 19 and 18
same,"FP signal, 14-3-3β titration",[3]; 14-3-3β 476.8 pM,4.333 (2×) and 2.333
same,FP signal,[3]; 14-3-3β 556.9 pM,6 (2×) and 5
same,Polarization,[3]; 14-3-3β 953.7 pM,21 and 20 and 18
same,"FP signal, 14-3-3β titration",[3]; 14-3-3β 953.7 pM,4.333 (2×) and 6.333
